Patent EP0336132A1, “1-Phenylpropyl compounds” (Byk Gulden Lomberg Chemische Fabrik GmbH, priority 1988, dated 1989)
Like-named read-outs stand apart in the source and are kept apart here.

Test system: genetisch hypertonen Ratten
Experiment: Antihypertensive effect in the spontaneously hypertensive rat, systolic blood pressure by tail cuff after oral dosing
Format: in vivo, Ratte
Conditions: male SHR/N/Ibm/Bm rats, N=6, mean of day 1 and 2; for change in vivo at 25 µmol/kg / change in vivo at 10 µmol/kg: Rattus norvegicus, po; for change in vivo at 25 µmol/kg / BP (% Änderung vs. Kontrolle), Mittelwert für Meßzeitpunkte: Stunden nach Gabe (1. und 2. Tag) 2h / BP (% Änderung vs. Kontrolle), Mittelwert für Meßzeitpunkte: Stunden nach Gabe (1. und 2. Tag) 6h: 25 µmol/kg p.o. once daily on two consecutive days; for change in vivo at 10 µmol/kg: 10 µmol/kg p.o. once daily on two consecutive days
Source text: Die antihypertensive Wirksamkeit der erfindungsgemäßen Verbindungen kann am Modell der spontan hypertonen Ratte nachgewiesen werden.
Zur Bestimmung der antihypertensiven Wirkung werden die unten aufgeführten Verbindungen in den angegebenen Dosen an zwei aufeinander folgenden Tagen an je 6 männlichen Ratten (Stamm SHR/N/Ibm/Bm, 250-350 g) mit genetisch bedingtem Hochdruck (systolischer Blutdruck > 180 mmHg) täglich einmal mittels Schlundsonde verabfolgt. Die Messung des Blutdrucks erfolgt jeweils 2, 6 und 24 Stunden nach Substanzgabe.
Die Blutdruckmessung wird in einer Wärmekammer bei 36°C vorgenommen, um eine bessere Durchblutung der Schwanzarterie zu erreichen. Hierzu werden die Tiere in perforierte Lochblechkäfige verbracht und 20 - 40 Min. nach Beginn der Aufwärmung gemessen. Zur Messung des systolischen arteriellen Drucks wird eine ringförmige Manschette mit aufblasbarer Gummimembran zur Unterbindung der Durchblutung und ein ringförmiger Piezokristallaufnehmer zur Erfassung der Pulswellen auf den Schwanz aufgeschoben. Nach erfolgter Unterbindung des Blutstroms in der Schwanzarterie wird der Manschettendruck kontinuierlich reduziert. Die Wiederkehr der Pulswellen bei Druckablassen wird automatisch als systolischer Blutdruck erkannt und ausgedruckt (Bühler, R. et al.: Microprocessor-based automation of blood pressure measurement in the conscious rat. Proceedings of the 4th international symposium on rats with spontaneous hypertension and related studies, Rascher, R. et al. (Eds.), Schattauer Verlag, Stuttgart, New York, 1982, S. 410-413). Pulssignale und Druckverlauf werden zur Auswertung graphisch aufgezeichnet.
Zur Gewöhnung an den Meßvorgang werden die Tiere vor Substanzprüfung 14 Tage trainiert. In der zweiten Trainingswoche werden Blutdruck-Vorwerte erhoben. Tiergruppen, die Substanz erhalten, werden gegen eine Kontrollgruppe geprüft. In der anschließenden Tabelle werden die untersuchten Verbindungen durch laufende Nummern gekennzeichnet, die mit den jeweiligen Beispielnummern übereinstimmen. Bei getrennten Diastereomeren ist der Drehwert des untersuchten Diastereomers angegeben.
Tabelle I gibt für die Vertreter der erfindungsgemäßen Verbindungen die prozentuale Senkung des Blutdrucks (BP) nach oraler Verabreichung bei der Ratte wieder.
%-Änderungen (BP) an genetisch hypertonen Ratten nach täglich einmaliger p.o.-Applikation an zwei aufeinanderfolgenden Tagen (N=6/Dosis).

[1] = 2 h, 2h after dosing, read-out: BP (% Änderung vs. Kontrolle), Mittelwert für Meßzeitpunkte: Stunden nach Gabe (1. und 2. Tag) 2h
[2] = 6 h, 6h after dosing, read-out: BP (% Änderung vs. Kontrolle), Mittelwert für Meßzeitpunkte: Stunden nach Gabe (1. und 2. Tag) 6h
[3] = 24 h, 24h after dosing, read-out: BP (% Änderung vs. Kontrolle), Mittelwert für Meßzeitpunkte: Stunden nach Gabe (1. und 2. Tag) 24h

Structure (SMILES)	change in vivo at 25 µmol/kg [1] [%]	change in vivo at 25 µmol/kg [2] [%]	change in vivo at 25 µmol/kg [3] [%]	also measured
COC(=O)C1=C(C)NC(C)=C(C(=O)O[C@H](c2ccccc2)[C@H](C)N(C)CC=Cc2ccccc2)C1c1cccc([N+](=O)[O-])c1 (single isomer, unassigned) [Beispiel 14]	-51.5	-41.5		
CN[C@@H](C)[C@H](OC(=O)C1=C(C)NC(C)=C(C(=O)OC)C1c1cccc([N+](=O)[O-])c1)c1ccccc1 (single isomer, unassigned) [8 (+202,6°)]	-55	-43	-10.5	
CCOC(=O)C1=C(C)NC(C)=C(C(=O)O[C@H](c2ccccc2)[C@H](C)N(C)C)C1c1cccc([N+](=O)[O-])c1 (single isomer, unassigned) [Beispiel 1a]				BP (% Änderung vs. Kontrolle), Mittelwert für Meßzeitpunkte: Stunden nach Gabe (1. und 2. Tag) 2h (2h after dosing): -47,5%; BP (% Änderung vs. Kontrolle), Mittelwert für Meßzeitpunkte: Stunden nach Gabe (1. und 2. Tag) 6h (6h after dosing): -44,5%
COC(=O)C1=C(C)NC(C)=C(C(=O)O[C@@H](c2ccccc2)[C@@H](C)N)C1c1cccc([N+](=O)[O-])c1 (single isomer, unassigned) [17 (-104,3°)]	-56	-47	-14.5	
CCN(C)[C@@H](C)[C@H](OC(=O)C1=C(C)NC(C)=C(C(=O)OC)C1c1cccc([N+](=O)[O-])c1)c1ccccc1 (single isomer, unassigned) [Beispiel 12]	-48.5	-38		
COC(=O)C1=C(C)NC(C)=C(C(=O)O[C@H](c2ccccc2)[C@H](C)N)C1c1cccc([N+](=O)[O-])c1 (single isomer, unassigned) [16 (+216,4°)]	-59	-56.5	-21.5	
CN[C@H](C)[C@H](OC(=O)C1=C(C)NC(C)=C(C(=O)OC)C1c1cccc([N+](=O)[O-])c1)c1ccccc1 (single isomer, unassigned) [10 (+165,5°)]	-52	-39.5		
CCOC(=O)C1=C(C)NC(C)=C(C(=O)O[C@@H](c2ccccc2)[C@@H](C)N(C)C)C1c1cccc([N+](=O)[O-])c1 (single isomer, unassigned) [Beispiel 2b]	-40	-34.3		
COC(=O)C1=C(C)NC(C)=C(C(=O)O[C@H](c2ccccc2)[C@H](C)N(C)Cc2ccccc2)C1c1cccc([N+](=O)[O-])c1 (single isomer, unassigned) [Beispiel 11]	-53.5	-48		
COC(=O)C1=C(C)NC(C)=C(C(=O)O[C@H](c2ccccc2)[C@H](C)N(C)Cc2cc([N+](=O)[O-])ccc2OC)C1c1cccc([N+](=O)[O-])c1 (single isomer, unassigned) [Beispiel 19]				change in vivo at 10 µmol/kg [1]: -42%; change in vivo at 10 µmol/kg [2]: -23.5%; change in vivo at 10 µmol/kg [3]: -10.5%
CN[C@@H](C)[C@@H](OC(=O)C1=C(C)NC(C)=C(C(=O)OC)C1c1cccc([N+](=O)[O-])c1)c1ccccc1 (single isomer, unassigned) [9 (-66,3°)]	-55	-49.5		
CN[C@H](C)[C@@H](OC(=O)C1=C(C)NC(C)=C(C(=O)OC)C1c1cccc([N+](=O)[O-])c1)c1ccccc1 (single isomer, unassigned) [7 (-88°)]	-56	-46	-11.5	
COC(=O)C1=C(C)NC(C)=C(C(=O)O[C@H](c2ccccc2)[C@@H](C)N(C)Cc2cc(OC)c(OC)c(OC)c2)C1c1cccc([N+](=O)[O-])c1 (single isomer, unassigned) [Beispiel 15]	-62.5	-56	-37	
CCOC(=O)C1=C(C)NC(C)=C(C(=O)O[C@H](c2ccccc2)[C@H](C)N(C)C)C1c1cccc([N+](=O)[O-])c1 (single isomer, unassigned) [Beispiel 1b]				BP (% Änderung vs. Kontrolle), Mittelwert für Meßzeitpunkte: Stunden nach Gabe (1. und 2. Tag) 2h (2h after dosing): -40,0%; BP (% Änderung vs. Kontrolle), Mittelwert für Meßzeitpunkte: Stunden nach Gabe (1. und 2. Tag) 6h (6h after dosing): -30,3%
